Data from the NIST ThermoML archive (doi:10.1016/j.tca.2008.09.005).
Numbers after ± are expanded uncertainties.

What was measured:
[1] = 298.15 K, 101.33 kPa, Liquid
[2] = refractive index (Na D-line) (dimensionless); settings: 298.15 K; 101.33 kPa; Liquid; Standard Abbe refractometry

Row | electrical conductivity [1] | mass density ([1]; Vibrating tube method) | refractive index [2] | SMILES
1 | 1.3e-05 ± 1e-06 S/m | – | – | O [water]
2 | – | 1052.23 ± 1.2 kg/m3 | 1.4713 ± 0.0008 | CN1CCN(C)C1=O [1,3-dimethyl-2-imidazolidinone]
